According to patent US12692249B2, “WDR5 inhibitors and modulators” (Vanderbilt University, priority 2019, dated 2026):
Read-outs that look alike come from different tables or passages of the source.

Columns and labels:
[1] = molecular target: WDR5 (Homo sapiens, UniProt P61964); assay: TR-FRET competition binding assay, displacement of 10mer-Thr-FAM MLL peptide probe from His-tagged WDR5; details: WDR5-His tag (residues 24-334) 2 nM; 10mer-Thr-FAM 150 nM; 60 min, room temperature; read-out: Ki for Inhibition of WDR5 by TR-FRET assay
[2] = test system: MV4:11 human cancer cell lines; assay: Cellular viability / anti-proliferative assay, CellTiter-Glo, 5 day protocol; assay type: cell-based; details: Homo sapiens, MV4-11, 120 h, read-out: GI50 on cellular proliferation of MV4:11 human cancer cell lines
Method in brief: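 Luminescent ATP-based viability (CellTiter-Glo) after a 5-day exposure gave GI50 via sigmoidal fitting, averaged over two or more replicates. Compounds spanned 22 two-fold steps down from 30 μM at 0.3% DMSO, on 200 MV-4-11 cells per well grown in IMDM plus 10% FBS.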

[3] = MV4:11 cells, 5 day incubation, CellTiter-Glo, mean of at least two replicates

Structure (SMILES) | Ki [1] [nM] | GI50 [2, 3] [nM] | GI50 [2] [nM]
CCc1cc(-c2cncnc2)c2nccc(N3CCc4c(cc(Cn5ccnc5)cc4-c4cn(C)nc4C(F)(F)F)C3=O)c2c1 [Example 96, 7-((1H-Imidazol-1-yl)methyl)-2-(6-ethyl-8-(pyrimidin-5-yl)quinolin-4-yl)-5-(1-methyl-3-(trifluoromethyl)-1H-pyrazol-4-yl)-3,4-dihydroisoquinolin-1(2H)-one] | < 0.02 | < 20 | –
COc1ccc2c(=O)[nH]cc(N3CCc4c(cc(Cn5ccnc5)cc4-c4cn(C)nc4C(F)(F)F)C3=O)c2c1 [Example 98, 7-((1H-imidazol-1-yl)methyl)-6′-methoxy-5-(1-methyl-3-(trifluoromethyl)-1H-pyrazol-4-yl)-3,4-dihydro-1H-[2,4′-biisoquinoline]-1,1′(2′H)-dione] | 0.059 | 163 | –
COc1cc(Br)c2nc(C)cc(N3CCc4c(cc(Cn5ccnc5)cc4-c4cn(C)nc4C(F)(F)F)C3=O)c2c1 [Example 101, 7-((1H-imidazol-1-yl)methyl)-2-(8-bromo-6-methoxy-2-methylquinolin-4-yl)-5-(1-methyl-3-(trifluoromethyl)-1H-pyrazol-4-yl)-3,4-dihydroisoquinolin-1(2H)-one] | 0.023 | < 20 | –
Cc1ccc2c(N3CCc4c(cc(Cn5ccnc5)cc4-c4cn(C)nc4C(F)(F)F)C3=O)cccc2n1 [Example 103, 7-((1H-Imidazol-1-yl)methyl)-5-(1-methyl-3-(trifluoromethyl)-1H-pyrazol-4-yl)-2-(2-methylquinolin-5-yl)-3,4-dihydroisoquinolin-1(2H)-one] | 0.029 | 718 | –
Cc1cnc2cccc(N3CCc4c(cc(Cn5ccnc5)cc4-c4cn(C)nc4C(F)(F)F)C3=O)c2c1 [Example 104, 7-((1H-Imidazol-1-yl)methyl)-5-(1-methyl-3-(trifluoromethyl)-1H-pyrazol-4-yl)-2-(3-methylquinolin-5-yl)-3,4-dihydroisoquinolin-1(2H)-one] | 0.028 | 24 | –
Cc1cc(OCCN(C)C)c2cncc(N3CCc4c(cc(Cn5ccnc5)cc4-c4cn(C)nc4C(F)(F)F)C3=O)c2c1 [Example 106, 7-((1H-Imidazol-1-yl)methyl)-8′-(2-(dimethylamino)ethoxy)-6′-methyl-5-(1-methyl-3-(trifluoromethyl)-1H-pyrazol-4-yl)-3,4-dihydro-1H-[2,4′-biisoquinolin]-1-one] | 0.045 | < 20 | –
CCc1ccc2c(N3CCc4c(cc(Cn5ccnc5)cc4-c4cn(C)nc4C(F)(F)F)C3=O)cccc2n1 [Example 107] | 0.021 | 452 | –
Cc1cc2c(N3CCc4c(cc(Cn5ccnc5)cc4-c4cn(C)nc4C(F)(F)F)C3=O)cccc2nc1C [Example 108, 7-((1H-imidazol-1-yl)methy)-2-(2,3-dimethylquinolin-5-yl)-5-(1-methyl-3-(trifluoromethyl)-1H-pyrazol-4-yl)-3,4-dihydroisoquinolin-1(2H)-one] | 0.042 | 40 | –
CCc1cc(Br)c2nc(C)cc(N3CCc4c(cc(Cn5ccnc5)cc4-c4cn(C)nc4C(F)(F)F)C3=O)c2c1 [Example 109, 7-((1H-imidazol-1-yl)methyl)-2-(8-bromo-6-ethyl-2-methylquinolin-4-yl)-5-(1-methyl-3-(trifluoromethyl)-1H-pyrazol-4-yl)-3,4-dihydroisoquinolin-1(2H)-one] | < 0.02 | 22 | –
CCc1cc(N2CCN(C)CC2)c2nc(C)cc(N3CCc4c(cc(Cn5ccnc5)cc4-c4cn(C)nc4C(F)(F)F)C3=O)c2c1 [Example 110, 7-((1H-imidazol-1-yl)methyl)-2-(6-ethyl-2-methyl-8-(4-methylpiperazin-1-yl)quinolin-4-yl)-5-(1-methyl-3-(trifluoromethyl)-1H-pyrazol-4-yl)-3,4-dihydroisoquinolin-1(2H)-one] | 0.021 | < 20 | –
Cc1cc(N2CCN(C)C(=O)C2)c2cncc(N3CCc4c(cc(Cn5ccnc5)cc4-c4cn(C)nc4C(F)(F)F)C3=O)c2c1 [Example 112, 7-((1H-Imidazol-1-yl)methyl)-6′-methyl-5-(1-methyl-3-(trifluoromethyl)-1H-pyrazol-4-yl)-8′-(4-methyl-3-oxopiperazin-1-yl)-3,4-dihydro-1H-[2,4′-biisoquinolin]-1-one] | 0.037 | 23 | –
CCc1cc(N2CC(=O)N(C)C2)c2nc(C)cc(N3CCc4c(cc(Cn5ccnc5)cc4-c4cn(C)nc4C(F)(F)F)C3=O)c2c1 [Example 113, 7-((1H-Imidazol-1-yl)methyl)-2-(6-ethyl-2-methyl-8-(3-methyl-4-oxoimidazolidin-1-yl)quinolin-4-yl)-5-(1-methyl-3-(trifluoromethyl)-1H-pyrazol-4-yl)-3,4-dihydroisoquinolin-1(2H)-one] | 0.023 | < 20 | –
CCc1cc(OC)c2cncc(N3CCc4c(cc(Cn5ccnc5)cc4-c4cn(C)nc4C(F)(F)F)C3=O)c2c1 [Example 116, 7-((1H-Imidazol-1-yl)methy)-6′-ethyl-8-methoxy-5-(1-methyl-3-(trifluoromethyl)-1H-pyrazol-4-yl)-3,4-dihydro-1H-[2,4′-biisoquinolin]-one] | 0.028 | – | < 20
CCc1cc2c(N3CCc4c(cc(Cn5ccnc5)cc4-c4cn(C)nc4C(F)(F)F)C3=O)cccc2nc1C [Example 117, 7-((1H-Imidazol-1-yl)methyl)-2-(3-ethyl-2-methylquinolin-5-yl)-5-(1-methyl-3-(trifluoromethyl)-1H-pyrazol-4-yl)-3,4-dihydroisoquinolin-1(2H)-one] | 0.036 | – | 64

Further lines, with some results ahead:

Ki [1] [nM] | GI50 [2, 3] [nM] | Structure (SMILES) | GI50 [2] [nM]
0.038 | 43 | COc1cc2c(N3CCc4c(cc(Cn5ccnc5)cc4-c4cn(C)nc4C(F)(F)F)C3=O)cccc2nc1C [Example 114, 7-((1H-Imidazol-1-yl)methyl)-2-(3-methoxy-2-methylquinolin-5-yl)-5-(1-methyl-3-(trifluoromethyl)-1H-pyrazol-4-yl)-3,4-dihydroisoquinolin-1(2H)-one] | –
0.031 | 40 | CCc1cc(F)c2cncc(N3CCc4c(cc(Cn5ccnc5)cc4-c4cn(C)nc4C(F)(F)F)C3=O)c2c1 [Example 115, 7-((1H-Imidazol-1-yl)methyl)-6′-ethyl-8′-fluoro-5-(1-methyl-3-(trifluoromethyl)-1H-pyrazol-4-yl)-3,4-dihydro-1H-[2,4′-biisoquinolin]-1-one] | –
> 33000 | 3970 | COc1ccc2nc(C)cc(N3CCc4c(cc(Cn5ccnc5[N+](=O)[O-])cc4-c4cn(C)nc4C(F)(F)F)C3=O)c2c1 [Example 118, 2-(6-Methoxy-2-methylquinolin-4-yl)-5-(1-methyl-3-(trifluoromethyl)-1H-pyrazol-4-yl)-7-((2-nitro-1H-imidazol-1-yl)methyl)-3,4-dihydroisoquinolin-1(2)-one] | –
0.057 | 457 | CCc1nc2cccc(N3CCc4c(cc(Cn5ccnc5)cc4-c4cn(C)nc4C(F)(F)F)C3=O)c2cc1C [Example 119, 7-((1H-Imidazol-1-yl)methyl)-2-(2-ethyl-3-methylquinolin-5-yl)-5-(1-methyl-3-(trifluoromethyl)-1H-pyrazol-4-yl)-3,4-dihydroisoquinolin-1(2H)-one] | –
0.023 | < 20 | CCc1cc(OC)c2nc(C)cc(N3CCc4c(cc(Cn5ccnc5)cc4-c4cn(C)nc4C(F)(F)F)C3=O)c2c1 [Example 120, 7-((1H-Imidazol-1-yl)methyl)-2-(6-ethyl-8-methoxy-2-methylquinolin-4-yl)-5-(1-methyl-3-(trifluoromethyl)-1H-pyrazol-4-yl)-3,4-dihydroisoquinolin-1(2H)-one] | –
0.023 | < 20 | COc1ccc2nc(C)cc(N3CCc4c(cc(Cn5ccnc5N)cc4-c4cn(C)nc4C(F)(F)F)C3=O)c2c1 [Example 121, 7-((2-Amino-1H-imidazol-1-yl)methyl)-2-(6-methoxy-2-methylquinolin-4-yl)-5-(1-methyl-3-(trifluoromethyl)-1-1H-pyrazol-4-yl)-3,4-dihydroisoquinolin-1(2H)-one] | –
0.052 | 27 | COc1cc(OC)c2cncc(N3CCc4c(cc(Cn5ccnc5)cc4-c4cn(C)nc4C(F)(F)F)C3=O)c2c1 [Example 122, 7-((1H-Imidazol-1-yl)methyl)-6′,8′-dimethoxy-5-(1-methyl-3-(trifluoromethyl)-1H-pyrazol-4-yl)-3,4-dihydro-1H-[2,4′-biisoquinolin]-1-one] | –
0.04 | < 20 | COc1cc(N2CCN(C)CC2)c2cncc(N3CCc4c(cc(Cn5ccnc5)cc4-c4cn(C)nc4C(F)(F)F)C3=O)c2c1 [Example 123, 7-((1H-Imidazol-1-yl)methyl)-6′-methoxy-5-(1-methyl-3-(trifluoromethyl)-1H-pyrazol-4-yl)-8′-(4-methylpiperazin-1-yl)-3,4-dihydro-1H-[2,4′-biisoquinolin]-1-one] | –
0.03 | < 20 | CCc1cc(N2CCN3CCOC[C@H]3C2)c2nc(C)cc(N3CCc4c(cc(Cn5ccnc5)cc4-c4cn(C)nc4C(F)(F)F)C3=O)c2c1 [Example 124, (R)-7-((1H-Imidazol-1-yl)methyl)-2-(6-ethyl-8-(hexahydropyrazino[2,1-c][1,4]oxazin-8(1H)-yl)-2-methylquinolin-4-yl)-5-(1-methyl-3-(trifluoromethyl)-1H-pyrazol-4-yl)-3,4-dihydroisoquinolin-1(2H)-one] | –
0.021 | < 20 | COc1cc(CN2CCN(C(C)=O)CC2)c2nccc(N3CCc4c(cc(Cn5ccnc5)cc4-c4cn(C)nc4C(F)(F)F)C3=O)c2c1 [Example 127, 7-((1H-Imidazol-1-yl)methyl)-2-(8-((4-acetylpiperazin-1-yl)methyl)-6-methoxyquinolin-4-yl)-5-(1-methyl-3-(trifluoromethyl)-1H-pyrazol-4-yl)-3,4-dihydroisoquinolin-1(2H)-one] | –
